In patent publication US20110144140A1, “PYRIDINYL-PYRIMIDINE DERIVATIVES USEFUL AS POTASSIUM CHANNEL MODULATING AGENTS” (priority 2006, published 2011):
Where a name gives a salt, the structure may show the parent alone.

Columns and labels:
hSK3 channels = molecular target: T1, hSK3 channels (Homo sapiens, UniProt Q9UGI6); assay: whole-cell patch-clamp recording of ionic current through SK channels, subtype 3, in HEK293 cells; assay type: cell-based; conditions: HEK293 cells expressing hSK3, baseline current at −75 mV, free Ca2+ 0.3-0.4 μM
T1 construct: expressed in transfected cells; host or cells: HEK293
T1 sequence (Q9UGI6 whole entry): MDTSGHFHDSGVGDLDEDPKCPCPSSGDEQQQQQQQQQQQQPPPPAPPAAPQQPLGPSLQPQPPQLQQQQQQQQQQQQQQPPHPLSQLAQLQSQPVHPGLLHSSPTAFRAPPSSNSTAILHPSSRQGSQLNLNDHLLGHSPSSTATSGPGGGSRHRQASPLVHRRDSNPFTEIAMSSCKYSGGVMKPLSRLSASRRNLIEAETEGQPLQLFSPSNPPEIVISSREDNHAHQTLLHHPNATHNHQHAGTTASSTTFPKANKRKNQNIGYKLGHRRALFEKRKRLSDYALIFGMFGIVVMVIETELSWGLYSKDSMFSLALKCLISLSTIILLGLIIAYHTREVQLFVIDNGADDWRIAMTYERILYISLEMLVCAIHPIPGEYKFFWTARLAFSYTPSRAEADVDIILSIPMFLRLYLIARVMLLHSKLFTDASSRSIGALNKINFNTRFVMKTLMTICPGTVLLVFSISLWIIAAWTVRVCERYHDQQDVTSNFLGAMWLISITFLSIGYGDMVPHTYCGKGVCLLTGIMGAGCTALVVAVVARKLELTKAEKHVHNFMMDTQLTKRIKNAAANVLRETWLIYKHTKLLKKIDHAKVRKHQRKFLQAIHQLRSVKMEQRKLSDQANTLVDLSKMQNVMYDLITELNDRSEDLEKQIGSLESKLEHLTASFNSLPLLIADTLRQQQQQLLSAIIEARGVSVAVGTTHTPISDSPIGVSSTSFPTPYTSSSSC
Experimental: The ionic current through small-conductance Ca^2+-activated K^+ channels (SK channels, subtype 3) is recorded using the whole-cell configuration of the patch-clamp technique.
HEK293 tissue culture cells expressing hSK3 channels were grown in DMEM (Dulbecco's Modified Eagle Medium) supplemented with 10% FCS (foetal calf serum) at 37° C. in 5% CO2. At 60-80% confluency, cells were harvested by trypsin treatment and seeded on cover slips.
Experiments are carried out on one of several patch-clamp set-ups. Cells plated on coverslips are placed in a 15 μl perfusion chamber (flowrate ˜1 ml/min) mounted on an IMT-2 microscope. The microscopes are placed on vibration-free tables in grounded Faraday cages. All experiments are performed at room temperature (20-22° C.). […] Data are stored directly on the hard-disk and analysed by IGOR software (Wavemetrics, Lake Oswega, Oreg., USA).
The whole-cell configuration of the patch-clamp technique is applied. […] Cell capacitance is electronically compensated and the resistance between the pipette and the cell interior (the series resistance, Rs) is measured and compensated for. […]
The intracellular (pipette) solution contained: 154 mM KCl, 10 mM HEPES, 10 mM EGTA. Concentrations of CaCl2 and MgCl2 needed to obtain the desired free concentrations of Ca^2+ (0.3-0.4 μM, Mg^2+ always 1 mM) were calculated by EqCal software (Cambridge, UK) and added. […]

Row | SMILES | melting point [°C] | SC100 (Stimulating Concentration required for increasing the baseline current by 100%) (hSK3 channels) [µM]
1 | Cc1cccc(-c2nc(C)cc(NC3CCCCC3)n2)n1 | 59.6 to 65 | 
2 | Cc1cc(Nc2ccc(Cl)cc2)nc(-c2cccc(Cl)n2)n1 (as salt: hydrochloride) [Compound 4A, (4-Chloro-phenyl)-[6-methyl-2-(6-chloro-pyridin-2-yl)-pyrimidin-4-yl]-amine] | 239 | 
3 | Cc1cc(Nc2ccc(Cl)cc2)nc(-c2cccc(Cl)n2)n1 [Compound 4A, (4-Chloro-phenyl)-[6-methyl-2-(6-chloro-pyridin-2-yl)-pyrimidin-4-yl]-amine] |  | 0.3
